# Assay results as given in publication PMC6095690, “Coalescing beneficial host and deleterious antiparasitic actions as an antischistosomal strategy” (eLife, 2018).
# Read-outs that look alike come from different tables or passages of the source.
# Assays:
# [1] = target: T1, Sm.5HTRL (Schistosoma mansoni, UniProt A0A173FEI8)
# [2] = system: parental HEK293 cell line expressing the GloSensor 22F cAMP sensor and lacking Sm.5HTRL; test: counter-screen of agonist hits: basal cAMP luminescence in parental reporter line; type: cell-based
# [3] = system: adult S. mansoni parasites; test: adult worm movement assay ex vivo; set-up: species or system Schistosoma mansoni; conditions: for IC50: read-out: IC50 for inhibition of 5-HT evoked movement, 5-HT 200 µM
# [4] = target: T1, Sm.5HTRL; test: cell-based
# [5] = system: S. mansoni (mature infection in Swiss Webster mice); test: hepatic shift assay in infected mice; conditions: intraperitoneal, sacrificed three hours later; dose not given
# [6] = agonist hit counter screen, cells lacking Sm.5HTRL
# [7] = Schistosoma mansoni, ex vivo, ± 95% confidence interval
# T1 sequence (A0A173FEI8 1-547): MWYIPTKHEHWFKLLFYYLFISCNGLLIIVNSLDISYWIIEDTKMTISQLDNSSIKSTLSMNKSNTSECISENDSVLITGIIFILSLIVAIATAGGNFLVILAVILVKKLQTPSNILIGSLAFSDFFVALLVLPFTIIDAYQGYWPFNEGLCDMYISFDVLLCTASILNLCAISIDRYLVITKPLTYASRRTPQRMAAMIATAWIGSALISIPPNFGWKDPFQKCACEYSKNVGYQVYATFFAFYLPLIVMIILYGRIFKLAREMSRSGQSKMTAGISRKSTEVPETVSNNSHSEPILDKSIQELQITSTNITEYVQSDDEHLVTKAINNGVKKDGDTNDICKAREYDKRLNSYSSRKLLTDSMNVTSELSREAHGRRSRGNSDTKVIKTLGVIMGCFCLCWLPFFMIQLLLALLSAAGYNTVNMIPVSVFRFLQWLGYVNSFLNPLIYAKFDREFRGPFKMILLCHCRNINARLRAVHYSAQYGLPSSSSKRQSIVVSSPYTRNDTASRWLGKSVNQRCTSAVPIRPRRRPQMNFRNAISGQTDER
SMILES,type of activity at schistosome 5-HTRs [1],"(-)Sm.5HTRL fold change [2, 6]",(+) Sm.5HTRL fold change ([1]; agonist hit validation),other results
"CC(C)C[C@H]1C(=O)N2CCC[C@H]2[C@]2(O)O[C@](NC(=O)[C@@H]3C=C4c5cccc6[nH]cc(c56)C[C@H]4N(C)C3)(C(C)C)C(=O)N12 [α-ergocryptine, reference compound]",inactive,–,–,–
CNCCc1c[nH]c2ccc(O)cc12.O=C(O)C(=O)O [ST055634],–,1.3 fold change,–,(+) Sm.5HTRL fold change ([1]; hek293 cells): 165.214 fold change
COc1cc2c(c(OC)c1OC)-c1ccc(OC)c(=O)cc1[C@@H](NC(C)=O)CC2 [compound 757],–,–,–,Sm.5HTRL agonism (fold change luminescence) [1]: 1.502 fold change luminescence; Sm.5HTRL antagonism (% of control 5-HT response) [1]: 1.228 % of control 5-HT response
"CN1C[C@H](C(=O)N[C@]2(C)O[C@@]3(O)[C@@H]4CCCN4C(=O)[C@H](Cc4ccccc4)N3C2=O)C[C@@H]2c3cccc4[nH]cc(c34)C[C@H]21 [dihydroergotamine, Dihydroergotamine, reference compound]",full agonists,–,–,–
Nc1ncnc2c1ncn2C1OC(CO)C(O)C1O (centres unmarked) [compound 7652],–,7.802 fold change,49.711 fold change,–
C=C[C@]1(C)C=C2CC[C@@H]3[C@](C)(CCC[C@@]3(C)C(=O)O)[C@H]2CC1 [compound 6435],–,0.9901 fold change,200.129 fold change,–
CNC[C@@H](O)c1ccc(O)c(O)c1 [compound 62786],–,88.8519 fold change,230.23 fold change,–
"CCN(CC)C(=O)[C@@H]1C=C2c3cccc4[nH]cc(c34)C[C@H]2N(C)C1 [LSD, reference compound]",partial agonist,–,–,"EC50 ([3]; Schistosoma mansoni, ex vivo, ± 95% confidence interval, read-out: EC50 for stimulation of adult schistosome movement): 1400 ± 500 nM"
Nc1ncnc2c1ncn2[C@@H]1O[C@H](CO)[C@@H](O)[C@H]1O [ST009496],–,3.9 fold change,24.237 fold change,–
CN1C[C@H](C(=O)N[C@]2(C)O[C@@]3(O)[C@@H]4CCCN4C(=O)[C@H](Cc4ccccc4)N3C2=O)C[C@@H]2c3cccc4[nH]cc(c34)C[C@H]21.CS(=O)(=O)O [ST056346],–,1.4 fold change,–,(+) Sm.5HTRL fold change [1]: 94.3413 fold change
Nc1nc(Cl)nc2c1ncn2C1OC(CO)C(O)C1O (centres unmarked) [ST088476],–,3.8 fold change,23.2211 fold change,–
CC(C)NCC(O)c1ccc(O)c(O)c1 (centres unmarked) [ST077771],–,15.0437 fold change,12.8429 fold change,–
Cl.NCCc1c[nH]c2ccc(Br)cc12 [ST093597],–,–,–,(-)Sm.5HTRL fold change [2]: 1.1795 fold change; (+) Sm.5HTRL fold change ([1]; hek293 cells): 15.2823 fold change
"CC(C)C[C@H]1C(=O)N2CCC[C@H]2[C@]2(O)O[C@](NC(=O)[C@@H]3C=C4c5cccc6[nH]c(Br)c(c56)C[C@H]4N(C)C3)(C(C)C)C(=O)N12 [bromocriptine, Bromocriptine]",antagonists,–,–,"IC50 [3, 7]: 331 ± 271 nM; 5-HT (200 µM) stimulation of worm movement after preincubation with antagonist ([3]; preincubation 1 µM, Figure 4B): 5-HT stimulation was not observed; IC50 [4]: 1600 ± 400 nM; percentage of worms in the liver [5]: 2.0 ± 2.8%"
"CCN(CC)C(=O)N[C@H]1C[C@@H]2c3cccc4[nH]cc(c34)C[C@H]2N(C)C1 [terguride, Terguride, reference compound]",antagonists,–,–,IC50 [4]: 400 ± 50 nM
"CCN(CC)C(=O)[C@@H]1C=C2c3cccc4[nH]c(Br)c(c34)C[C@H]2N(C)C1 [BOL-148, 2-Bromo-LSD]",antagonists,–,–,"IC50 [3, 7]: 28.8 ± 23.1 nM; potency relative to bromocriptine ([3]; inhibition of 5-HT evoked movement): ~ 10 fold; IC50 [4]: 100 ± 20 nM; percentage of worms in the liver [5]: 5.2 ± 2.3%"
COC(=O)C1=COC(C)C2CN3CCc4c([nH]c5cc(OC)c(OC)cc45)C3CC12.O=C(O)CC(O)(CC(=O)O)C(=O)O (centres unmarked) [compound 72715],–,0.9445 fold change,54.6116 fold change,–
